Target: T1, human LAT2 (Homo sapiens, UniProt Q9UHI5)
T1 construct: expressed in transfected cells
T1 sequence (Q9UHI5 1-535): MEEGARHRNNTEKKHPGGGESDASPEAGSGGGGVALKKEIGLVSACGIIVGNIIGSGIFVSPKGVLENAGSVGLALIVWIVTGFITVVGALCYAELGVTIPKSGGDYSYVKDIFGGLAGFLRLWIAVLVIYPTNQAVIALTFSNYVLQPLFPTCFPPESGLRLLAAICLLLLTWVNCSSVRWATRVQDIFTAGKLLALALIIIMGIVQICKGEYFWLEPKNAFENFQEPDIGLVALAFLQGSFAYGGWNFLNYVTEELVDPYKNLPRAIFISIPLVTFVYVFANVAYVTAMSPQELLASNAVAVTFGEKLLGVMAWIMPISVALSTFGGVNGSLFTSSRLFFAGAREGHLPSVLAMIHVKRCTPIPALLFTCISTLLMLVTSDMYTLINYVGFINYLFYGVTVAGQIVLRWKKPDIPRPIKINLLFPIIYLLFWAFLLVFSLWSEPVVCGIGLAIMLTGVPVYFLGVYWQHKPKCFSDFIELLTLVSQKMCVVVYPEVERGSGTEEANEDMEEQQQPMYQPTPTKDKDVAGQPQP
T1 sequence (P08195 1-529 partner): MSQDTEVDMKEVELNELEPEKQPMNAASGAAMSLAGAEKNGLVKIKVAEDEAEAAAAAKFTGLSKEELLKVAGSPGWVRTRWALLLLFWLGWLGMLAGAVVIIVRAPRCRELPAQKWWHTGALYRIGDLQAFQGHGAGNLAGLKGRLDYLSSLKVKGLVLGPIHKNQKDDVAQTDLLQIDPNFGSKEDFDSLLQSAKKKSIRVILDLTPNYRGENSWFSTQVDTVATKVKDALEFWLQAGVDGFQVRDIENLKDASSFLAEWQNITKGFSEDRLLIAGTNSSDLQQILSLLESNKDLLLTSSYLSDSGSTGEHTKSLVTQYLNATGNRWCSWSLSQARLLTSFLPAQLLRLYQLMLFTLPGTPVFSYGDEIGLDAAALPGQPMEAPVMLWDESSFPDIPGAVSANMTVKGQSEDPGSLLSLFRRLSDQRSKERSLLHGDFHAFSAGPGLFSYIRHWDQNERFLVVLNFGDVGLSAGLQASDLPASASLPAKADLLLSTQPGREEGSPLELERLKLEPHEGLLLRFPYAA
Test: Inhibition of amino acid uptake in human LAT2 stably expressing cell line
Assay type: cell-based
Text: A human LAT1 expression vector or a human LAT2 expression vector was transfected using Lipofectamine (registered trademark) 2000 (Invitrogen) into a human embryonic kidney cell line HEK293. G418-resistant HEK293 clones were selected, and among them, a clone showing human LAT1-specific amino acid uptake and a clone showing human LAT2-specific amino acid uptake were selected and established as a human LAT1 stably expressing cell line and a human LAT2 stably expressing cell line, respectively (Khunweeraphong et al. J Pharmacol Sci. 2012 Aug. 18; 119(4): 368-80. Epub 2012 Jul. 31).
The human LAT1 stably expressing cell line and the human LAT2 stably expressing cell line were seeded at 1.2×10^5 cells/well on separate collagen-coated 24-well plates, and after 48 hours, the cells were washed 3 times with an uptake buffer (Na^2+-free Hank's balanced salt solution (HBSS), pH 7.4) prewarmed at 37° C. Compound 10a, compound 10b or a positive control FAMT (fluoro-α-methyltyrosine) was added at 100 μM, and incubation was performed at 37° C. for 3 minutes. Cells not treated with any of these compounds were used as a negative control. After the incubation, 1 μM of [^14C]L-leucine or [^14C]alanine was added to the wells, [^14C]L-leucine or [^14C]alanine uptake was allowed to proceed for 1 minute, and the cells were washed 3 times with an ice-cold uptake buffer. Subsequently, 500 μL of 0.1 M NaOH was added to each well for cell lysis, 20 μL of the lysate was used for the measurement of the protein concentration, and the remaining lysate was used for the measurement of the intracellular radioactivity. The measured radioactivity was normalized to the protein concentration, and on the assumption that the amino acid uptake activity in the negative control was 100%, the percentage (%) of inhibition of amino acid uptake in the presence of each compound was calculated.
Using the same cell lines as described in Example 2, the compound of Example 1 was examined for the inhibitory effect on leucine or alanine uptake in the human LAT1 stably expressing cell line and the human LAT2 stably expressing cell line in the same manner as in Example 2. FAMT was used as the positive control. The compound of Example 1 or FAMT was added at 100 μM. Cells not treated with either of these compounds were used as a negative control. On the assumption that the amino acid uptake activity in the negative control (control) was 100%, the percentage (%) of inhibition of amino acid uptake in the presence of FAMT or the compound of Example 1 was calculated. In addition, the cancer cell selectivity was calculated as the ratio of the amino acid uptake activity in the human LAT2 stably expressing cell line relative to that in the human LAT1 stably expressing cell line.
In another experiment, the cells were treated with the compound of Example 1 at eight different concentrations (0.1, 1, 3, 10, 30, 100, 300 and 1000 μM), and the concentration causing 50% inhibition of amino acid uptake was calculated as the IC50 value.
A human LAT1 stably expressing cell line and a human LAT2 stably expressing cell line, each of which was the same as described in Example 2, were seeded at 1.2×10^5 cells/well, and after 48 hours, the cells were washed 3 times with an uptake buffer (Na^2+-free Hank's balanced salt solution (HBSS), pH 7.4) prewarmed at 37° C. The test compounds, L-tyrosine or the positive control FAMT (fluoro-α-methyltyrosine) was added at 30 μM, and incubation was performed at 37° C. for 3 minutes. Cells not treated with any of these compounds were used as a negative control. After the incubation, 1 μM of [^14C]L-leucine or [^14C]alanine was added to the wells, [^14C]L-leucine or [^14C]alanine uptake was allowed to proceed for 1 minute, and the cells were washed 3 times with an ice-cold uptake buffer. […]

NC(Cc1cc(OCCF)ccc1I)C(=O)O (centres unmarked) [Example 1, 2-amino-3-(5-(2-fluoroethoxy)-2-iodophenyl)propanoic acid]
inhibition at 100 µM (HEK293, compound at 100 μM, human LAT2 stably expressing HEK293 cell line, 1 μM [14C]L-leucine or [14C]alanine, 1 min uptake, read-out: Percentage of inhibition of LAT2-mediated amino acid uptake): 55.1%
IC50 (eight concentrations 0.1-1000 μM): 84 µM
